Columns and labels:
[1] = molecular target: hCatV (Homo sapiens, UniProt O60911); assay: In vitro inhibition of purified human Cathepsin V (Z-FR-AMC); format: biochemical; details: 30 min incubation with inhibitor, mean ± SD, triplicate
Procedure: (§1) Cathepsin (e.g. Cathepsin K/L/V/S/B), in particular purified human Cathepsin, was diluted in freshly prepared reaction buffer consisting of 50 mM MES pH 5.5, 25 mM EDTA and 2.5 mM DTT. 0.05% Tween20 (v/v) may be added to the reaction buffer of the Cathepsin K.
(§2) Activity assays may be conducted in a suitable manner. […] Plates were shaken at 600 rpm for 1 minute and centrifuged at 1000 rpm for 1 minute prior to incubation. Cathepsin activity was quantified using synthetic fluorogenic peptide substrate Z-FR-AMC (Cath K, L, V), Z-RR-AMC (Cath B) or Z-FVR-AMC (Cath S). Fluorescence intensity (λex=350 nm, λem=440 nm) was measured every 2 minutes in arbitrary units (A.U.) on a CLARIOstar (BMG Labtech) microplate reader and values were converted to product formation [AMC]. […] Measurements were performed in triplicate.
(§3) Inhibitors (200 nL, 100× final concentration in DMSO) were diluted in reaction buffer (10 μL). Purified human Cathepsin (5 μL, 4× final concentration) was added and the reaction mixture was incubated for 30 min at room temperature. Fluorogenic substrate (5 μL, 4× final concentration) was added and fluorescence intensity was measured every 2 minutes for 30-90 minutes.
(§4) The potency of the compounds as CatK inhibitors was assessed in an in vitro inhibition assay on purified human CatK (Table 2). Cathepsin was incubated with inhibitor, and the hydrolysis of substrate was initiated by addition of substrate.

[2] = system: human osteoclasts (OCs); assay: Inhibition of bone resorption by human osteoclasts cultured on cortical bone slices; format: cell-based; details: for effective dose / concentration inhibiting bone resorption: human OCs on cortical bone slices, staining at day 21
Procedure: (§5) The inhibitory properties on CatK of inhibitors of this invention were tested in a biologically relevant setting: inhibition of bone resorption by osteoclasts (OCs). OCs are the cells that degrade the bone matrix by secretion of acid and CatK into the resorption lacunae, resulting in the cleavage of collagen type I. Inhibition of osteoclastic CatK was studied by culturing OCs on cortical bone slices in presence of inhibitors of this invention (FIG. 5). […] OCs predominantly form deep trenches (paths) while OCs lacking CatK form small pits (circular dots). B) CD14+ monocytes on bone slices were treated with MCSF (day 0) and RANKL (day 3) to stimulate differentiation to mature OCs. Medium containing either an inhibitor or DMSO was refreshed on day 7, 10, 13 and 16. At day 21, OCs were washed away and lysed, and bone slices were stained to visualize bone resorption. C) Bone resorption visualized by staining of resorption pits with Coomassie Brilliant Blue. More staining means more resorption pits, thus more bone resorption activity. Normal D) Schematic overview of pro-Cathepsin K activation. E) CatK activity and expression in OC lysates. […] Darker bands indicate more activity/expression of CatK.

[3] = molecular target: hCatS (Homo sapiens, UniProt P25774); assay: In vitro inhibition of purified human Cathepsin S (Z-FVR-AMC); format: biochemical; details: 30 min incubation with inhibitor, mean ± SD, triplicate
Procedure: as §1
(§6) Activity assays may be conducted in a suitable manner. In the experiments described herein, the assays were typically conducted in Corning 3820 Low Volume 384 Well Assay Plate with a final assay volume of 20 μL. Plates were shaken at 600 rpm for 1 minute and centrifuged at 1000 rpm for 1 minute prior to incubation. Cathepsin activity was quantified using synthetic fluorogenic peptide substrate Z-FR-AMC (Cath K, L, V), Z-RR-AMC (Cath B) or Z-FVR-AMC (Cath S). Fluorescence intensity (λex=350 nm, λem=440 nm) was measured every 2 minutes in arbitrary units (A.U.) on a CLARIOstar (BMG Labtech) microplate reader and values were converted to product formation [AMC]. […] Measurements were performed in triplicate.
as §3, §4

[4] = molecular target: T1, CatK (Homo sapiens, UniProt P43235); assay: CatK activity (probe BMV109) and CatK expression (Western blot) in OC lysates; format: cell-based; set-up: endogenous in cells; host or cells: human osteoclasts differentiated from CD14+ monocytes on cortical bone slices; details: for mature CatK in OCs (Western blotting): OCs treated with inhibitor
T1 sequence (P43235 115-329): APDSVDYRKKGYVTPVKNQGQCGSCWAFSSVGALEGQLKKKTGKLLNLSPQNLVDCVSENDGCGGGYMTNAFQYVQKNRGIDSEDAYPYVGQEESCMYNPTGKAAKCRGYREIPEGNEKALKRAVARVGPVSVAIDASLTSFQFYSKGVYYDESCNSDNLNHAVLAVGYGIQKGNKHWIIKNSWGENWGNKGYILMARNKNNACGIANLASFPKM
Procedure: as §5
OC lysates were treated with activity-based irreversible Cathepsin probe BMV109 to assess whether the observed inhibition of bone resorption could be correlated with CatK activity (FIG. 5E).

[5] = molecular target: hCatB (Homo sapiens, UniProt P07858); assay: In vitro inhibition of purified human Cathepsin B (Z-RR-AMC); format: biochemical; details: 30 min incubation with inhibitor, mean ± SD, triplicate
Procedure: as §1, §2, §3, §4

[6] = molecular target: hCatL (Homo sapiens, UniProt P07711); assay: In vitro inhibition of purified human Cathepsin L (Z-FR-AMC); format: biochemical; details: 30 min incubation with inhibitor, mean ± SD, triplicate
Procedure: as §1, §2, §3, §4

[7] = molecular target: T2, hCatK (Homo sapiens, UniProt P43235); assay: Jump dilution assay for reversibility of hCatK inhibition; format: biochemical; details: 300× dilution into fluorogenic substrate solution
T2 sequence (P43235 115-329): T1 sequence (P43235 115-329)
Procedure: FIG. 3 provides a schematic overview of a jump dilution assay. A) Dose response curve for a 300-fold dilution of inhibitor concentration from full inhibition to full activity. B) Protocol and concentrations for incubation and dilution. C) Progress curves for hCatK proteolytic activity with inhibitor compounds ODN, 4, 5, 6 after dilution.
Reversibility of protease inhibition by an inhibitor may be assessed in a jump dilution assay. An exemplary jump dilution assay is provided in R. A. Copeland, A. Basavapathruni, M. Moyer, M. P. Scott, Anal. Biochem. 2011, 416, 206. In a jump dilution assay the protease (e.g. CatK) is incubated with inhibitor at high concentration to allow full active site occupation, and subsequently diluted, e.g. 300×, into fluorogenic substrate solution resulting in an inhibitor concentration corresponding with full protease activity. The hydrolysis of fluorogenic substrate is monitored over an extended time period, e.g. at least 60 minutes. […] The assay results may be compared with the results using a known irreversible inhibitor of the protease as a control. E-64 represents an established pan-Cathepsin irreversible inhibitor, suitable for use as a positive control with most cysteine protease Cathepsins.
Reversibility of hCatK inhibition was assessed in a jump dilution assay. Established pan-Cathepsin inhibitor E-64 was taken along as a control for irreversible inhibition. Purified hCatK was incubated with inhibitors at high concentration to allow full active site occupation, and subsequently diluted 300× into fluorogenic substrate solution resulting in an inhibitor concentration corresponding with full activity (FIG. 3).

[8] = molecular target: T2, hCatK; assay: In vitro inhibition of purified human Cathepsin K (fluorogenic substrate Z-FR-AMC); format: biochemical; details: for selectivity for CatK over structurally related human Cathepsins: in words, from Table 2; for IC50: purified human Cathepsin, 30 min incubation with inhibitor, mean ± SD, triplicate
Procedure: as §1, §6, §3, §4

[9] = samples treated with high concentrations

hCatS, sequence (P25774 115-331): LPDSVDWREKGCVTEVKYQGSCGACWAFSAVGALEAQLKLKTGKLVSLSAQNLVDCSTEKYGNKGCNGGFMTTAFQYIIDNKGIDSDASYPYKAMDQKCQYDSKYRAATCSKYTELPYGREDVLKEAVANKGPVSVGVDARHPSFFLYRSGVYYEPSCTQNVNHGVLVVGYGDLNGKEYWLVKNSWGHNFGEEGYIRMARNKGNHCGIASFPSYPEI
hCatL, sequence (P07711 114-333): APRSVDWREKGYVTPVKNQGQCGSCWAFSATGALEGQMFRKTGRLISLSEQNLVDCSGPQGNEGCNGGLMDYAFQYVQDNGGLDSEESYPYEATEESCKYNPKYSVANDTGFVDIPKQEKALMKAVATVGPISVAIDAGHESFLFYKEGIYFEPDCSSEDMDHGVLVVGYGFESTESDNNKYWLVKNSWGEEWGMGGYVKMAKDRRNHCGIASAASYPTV
hCatV, sequence (O60911 114-334): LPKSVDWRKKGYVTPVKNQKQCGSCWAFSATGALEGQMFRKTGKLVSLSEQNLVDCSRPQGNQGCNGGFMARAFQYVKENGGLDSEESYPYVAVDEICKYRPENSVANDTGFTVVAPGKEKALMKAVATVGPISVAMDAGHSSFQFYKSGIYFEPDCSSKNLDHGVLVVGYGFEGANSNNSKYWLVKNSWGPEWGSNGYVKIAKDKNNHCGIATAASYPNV

Row | IC50 [1] [µM] | IC50 [3] [µM] | mature CatK in OCs (Western blotting) [4] | CatK activity in OC lysates (probe BMV109) [4, 9] | IC50 [5] [µM] | IC50 [6] [µM] | reversibility of hCatK inhibition [7] | selectivity for CatK over structurally related human Cathepsins [8] | IC50 [8] [µM] | CatK activity in OC lysates (probe BMV109) ([4]; all samples treated) | Structure (SMILES) | inhibition of bone resorption ([2]; all tested concentrations) | effective dose / concentration inhibiting bone resorption [2] | bone resorption staining of bone slices ([2]; 3 nM) | bone resorption staining of bone slices ([2]; 15 nM)
1 | 45.9 ± 2.33 | 15.9 ± 1.84 | mature CatK is present | full inhibition of CatK activity | 39.7 ± 4.34 | > 100 | irreversible | conserved | 0.346 ± 0.0116 | – | C#CC(C)NC(=O)[C@H](CC(C)(C)F)N[C@@H](c1ccc(-c2ccc(S(C)(=O)=O)cc2)cc1)C(F)(F)F (mixture of isomers) [Compound 5, (S)—N—((R/S)-but-3-yn-2-yl)-4-fluoro-4-methyl-2-(((S)-2,2,2-trifluoro-1-(4′-(methylsulfonyl)-[1,1′-biphenyl]-4-yl)ethyl)amino)pentanamide] | non-conclusive | – | – | –
2 | 23.8 ± 1.41 | 10.7 ± 0.842 | mature CatK is present | full inhibition of CatK activity | 9.39 ± 0.628 | > 100 | irreversible | conserved | 0.293 ± 0.00873 | – | C#CCNC(=O)[C@H](CC(C)(C)F)N[C@@H](c1ccc(-c2ccc(S(C)(=O)=O)cc2)cc1)C(F)(F)F [Compound 4, (S)-4-fluoro-4-methyl-N-(prop-2-yn-1-yl)-2-(((S)-2,2,2-trifluoro-1-(4′-(methylsulfonyl)-[1,1′-biphenyl]-4-yl)ethyl)amino)pentanamide] | – | ≥ 80 nM | – | –
3 | 0.605 ± 0.0401 | 0.0243 ± 0.000569 | – | – | 0.0626 ± 0.0025 | 5.35 ± 0.596 | (fast) reversible inhibitor | – | 0.00056 ± 2e-06 | strong increase of mature CatK activity | CC(C)(F)C[C@H](N[C@@H](c1ccc(-c2ccc(S(C)(=O)=O)cc2)cc1)C(F)(F)F)C(=O)NC1(C#N)CC1 [ODN, (S)—N-(1-cyanocyclopropyl)-4-fluoro-4-methyl-2-(((S)-2,2,2-trifluoro-1-(4′-(methylsulfonyl)-[1,1′-biphenyl]-4-yl)ethyl)amino)pentanamide, reference compound] | – | around 15 nM | formation of deep trenches | formation of shallow pits

Source: patent US12371400B2, “Cathepsin inhibitors” (ACADEMISCH ZIEKENHUIS LEIDEN (H.O.D.N. LUMC), priority 2017, dated 2025)
